Assay results published in US20200237852A1, “Small Molecule Enhancers of Paneth Cell Function and Differentiation” (Massachusetts Institute of Technology, priority 2019, published 2020).

Assays:
[1] = test system: ISC-enriched organoids in ENR+CD; assay: 384-well secondary screen in ENR+CD incl. early vs. full treatment, secreted LYZ (LYZ.NS, LYZ.S); assay type: cell-based, C57BL/6 mice; conditions: ENR+CD, across all doses
Description: We again assessed treatment effect size with replicate SSMD (using a difference between well replicates and median assay value for all same-plate control wells—see Materials and Methods, High-throughput screening: 384-well secondary screen format and early vs. full treatment analysis) and hits were considered statistically validated by an SSMD greater than the false-positive-derived cutoffs (βα1=0.89 for 8 replicates with alpha=0.05; see Materials and Methods, High-throughput screening: 384-well secondary screen format and early vs. full treatment analysis) for both LYZ.NS and LYZ.S assays (FIG. 7A). Per this new cutoff, 10 dose-treatment combinations corresponding to 7 small molecules were chosen as hits, with every passing dose-treatment having a greater than 0 ATP effect size.
For 384-well plate high-throughput screening, ISC-enriched organoids were passaged and split to single cells with TyrpLE (Thermo Fisher Scientific) and cultured for 2-3 days in ENR+CVY prior to transfer to a “2.5-D” 384-well plate culture system. To prepare for “2.5D” plating, cell-laden Matrigel and media were homogenized via mechanical disruption and centrifuged at 300 g for 3 min at 4° C. Supernatant was removed and the pellet washed and spun in basal culture medium repeatedly until the cloudy Matrigel above the cell pellet was gone. On the final wash, pellet was resuspended in basal culture medium, the number of organoids counted, and the cell pellet was resuspended in ENR+CD medium at ˜7 clusters/μL. 384-well plates were first filled with 10 μL of 70% Matrigel (30% basal media) coating in each well using a Tecan Evo 150 Liquid Handling Deck, and allowed to gel at 37° C. for 5 minutes. Then 30 μL of cell-laden media was plated at the center of each well of 384-well plates with the liquid handler, and the plates were spun down at 50 g for 1 minute to embed organoids on the Matrigel surface. Compound libraries were pinned into prepped cell plates using 50 nL pins into 30 μL media/well. Cells were cultured at 37° C. with 5% CO2 for six days in ENR+CD medium supplemented with the tested compounds with a media change at three days. On day six, lysozyme secretion and cell viability were assessed using Lysozyme Assay Kit (EnzChek) and CellTiter-Glo 3D Cell Viability Assay (Promega), respectively, according to the manufacturers' protocols. Briefly, screen plates were washed 3× with FluoroBrite basal media (2 mM GlutaMAX and 10 mM HEPES in FluoroBrite DMEM (Thermo Fisher Scientific)) using a BioTek 406 plate washer with 10 min incubations followed by a 1 min centrifugation at 200 g to settle media between washes. After removal of the third wash, 30 μL of non-stimulated FluoroBrite basal media was added to each screen well using a Tecan Evo 150 Liquid Handling Deck from a non-stimulated treatment master plate, and plates were incubated for 30 min at 37° C. After 30 minutes, the top 15 μL of media from each well of the screen plate was transferred to a non-stimulated LYZ assay plate containing 15 μL of 20× DQ LYZ assay working solution using a Tecan Evo 150 Liquid Handling Deck. The non-stimulated LYZ assay plate was covered, shaken for 10 min, incubated for 50 min at 37° C., then fluorescence measured (shake 10 s; […]/518 nm) using a Tecan M1000 Plate Reader. After the media transfer to the non-stimulated LYZ assay plate, the remaining media was removed from the screen plate and 30 μL of Stimulated FluoroBrite basal media (supplemented with 10 μM CCh) was added to each screen well using a Tecan Evo 150 Liquid Handling Deck from a stimulated treatment master plate, and plates were incubated for 30 min at 37° C. After 30 minutes, the top 15 μL of media from each well of the screen plate was transferred to a stimulated LYZ assay plate containing 15 μL of 20× DQ LYZ assay working solution using a Tecan Evo 150 Liquid Handling Deck. […]

[2] = test system: 6-day ENR+CD cells; assay: Cell pellet ATP after long-term (48-hour) treatment; assay type: cell-based, murine; conditions: low doses
Description: (§1) We next sought to profile potential long-term modulators of differentiated PC survival and antimicrobial secretion, as well as gauge the interaction between long-term modulators and short-term induced secretion (via CCh). To accomplish this, we employed a similar set up as in the short-term experiment, with the exception that upon plating day 4 ENR+CD cells we additionally supplemented in either MDP, LPS, TNF-α, or IFN-γ for the additional 2 days in culture and assayed all conditions for both basal and CCh-induced LYZ secretion over 3 hours on day 6 of differentiation (FIG. 3A). […] Additionally, we see that the long-term addition reduces CCh-induced secretory function relative to the untreated control for all agents (FIG. 3D).
Small intestinal crypts were isolated from C57BL/6 mice of both sexes, aged between three to six months in all experiments. Crypts were then cultured in a Matrigel culture system. Briefly, crypts were resuspended in basal culture medium (Advanced DMEM/F12 with 2 mM GlutaMAX and 10 mM HEPES; Thermo Fisher Scientific) at a 1:1 ratio with Corning™ Matrigel™ Membrane Matrix—GFR (Fisher Scientific) and plated at the center of each well of 24-well plates. Following Matrigel polymerization, 500 μL of small intestinal crypt culture medium (basal media plus 100× N2 supplement, 50×B27 supplement; Life Technologies, 500× N-acetyl-L-cysteine; Sigma-Aldrich) supplemented with growth factors EGF—E (50 ng/mL, Life Technologies), Noggin—N (100 ng/mL, PeproTech) and R-spondin 1—R (500 ng/mL, PeproTech) and small molecules CHIR99021—C (3 μM, LC Laboratories) and valproic acid—V (1 mM, Sigma-Aldrich) was added to each well. ROCK inhibitor Y-27632—Y (10 μM, R&D Systems) was added for the first 2 days of culture. Cells were cultured at 37° C. with 5% CO2, and cell culture medium was changed every other day. After 6 days of culture, crypt organoids were isolated from Matrigel by mechanical dissociation. To expand enriched ISCs (ENR+CV/Y) or Paneth Cells (ENR+CD), organoids were cultured in 24-well plates, suspended in 40 uL 3-D gels (50-50 GFR MATRIGEL®, Basal culture media), with 500 uL of crypt media supplemented with necessary growth factors and small molecules. […]
For 96-well plate high-throughput screening, 4-day differentiated (ENR+CD) cell clusters in 3D Matrigel were transferred to a “2.5-D” 96-well plate culture system. […] On the last repeat, pellet was resuspended in basal culture medium, the number of cell clusters counted, and centrifuged at 300 g for 3 min at 4° C. […] At end time points (following 2 days in culture and 3 hours of stimulation), lysozyme secretion and cell viability were assessed using Lysozyme Assay Kit and CellTiter-Glo 3D Cell Viability Assay (Promega), respectively, according to the manufacturers' protocols. […]

[3] = test system: 6-day ENR+CD cells; assay: Long-term (48-hour) modulators of basal and CCh-induced LYZ secretion; assay type: cell-based, murine; conditions: 48-hour treatment; for effect size of reduction of CCh-induced secretory function relative to untreated control: CCh-induced secretion over 3 hours on day 6
Description: as §1
Small intestinal crypts were isolated from C57BL/6 mice of both sexes, aged between three to six months in all experiments. Crypts were then cultured in a Matrigel culture system. Briefly, crypts were resuspended in basal culture medium (Advanced DMEM/F12 with 2 mM GlutaMAX and 10 mM HEPES; Thermo Fisher Scientific) at a 1:1 ratio with Corning™ Matrigel™ Membrane Matrix—GFR (Fisher Scientific) and plated at the center of each well of 24-well plates. Following Matrigel polymerization, 500 μL of small intestinal crypt culture medium (basal media plus 100× N2 supplement, 50×B27 supplement; Life Technologies, 500× N-acetyl-L-cysteine; Sigma-Aldrich) supplemented with growth factors EGF—E (50 ng/mL, Life Technologies), Noggin—N (100 ng/mL, PeproTech) and R-spondin 1—R (500 ng/mL, PeproTech) and small molecules CHIR99021—C (3 μM, LC Laboratories) and valproic acid—V (1 mM, Sigma-Aldrich) was added to each well. ROCK inhibitor Y-27632—Y (10 μM, R&D Systems) was added for the first 2 days of culture. Cells were cultured at 37° C. with 5% CO2, and cell culture medium was changed every other day. After 6 days of culture, crypt organoids were isolated from Matrigel by mechanical dissociation. To expand enriched ISCs (ENR+CV/Y) or Paneth Cells (ENR+CD), organoids were cultured in 24-well plates, suspended in 40 uL 3-D gels (50-50 GFR MATRIGEL®, Basal culture media), with 500 uL of crypt media supplemented with necessary growth factors and small molecules. ROCK inhibitor (Y) was added for the first two days of ISC culture following reconstitution from cryopreservation or trypLE passaging to single cells. Cell culture medium was changed every other day. After 4 days of culture in ENR+CV, cell clusters were differentiated to PCs under the ENR+CD condition for 96-well short and long-term screens. For 384-well differentiation screens, 4-day ENR+CV clusters were passaged to single cells using trypLE, replated and expanded another 3 days in 3-D ENR+CVY and then passaged directly into screens.
For 96-well plate high-throughput screening, 4-day differentiated (ENR+CD) cell clusters in 3D Matrigel were transferred to a “2.5-D” 96-well plate culture system. Briefly, cell culture gel and medium were homogenized via mechanical disruption and centrifuged at 300 g for 3 min at 4° C. […] On the last repeat, pellet was resuspended in basal culture medium, the number of cell clusters counted, and centrifuged at 300 g for 3 min at 4° C. […] At end time points (following 2 days in culture and 3 hours of stimulation), lysozyme secretion and cell viability were assessed using Lysozyme Assay Kit and CellTiter-Glo 3D Cell Viability Assay (Promega), respectively, according to the manufacturers' protocols. […]

Compound	ATP-normalized LYZ assays (LYZ.NS/ATP, LYZ.S/ATP), early versus full treatment [1]	SSMD effect size of increase in cell number (ATP) [2]	change in cell number (ATP rel. to ENR+CD) [2]	effect size of reduction of CCh-induced secretory function relative to untreated control [3]	change in basal LYZ secretion (SSMD effect) ([3]; basal secretion over 3 hours on day 6)
COc1ccc(C2CNC(=O)C2)cc1OC1CCCC1 (centres unmarked) [Rolipram]	do not see a trend or significant difference				
CC(=O)N[C@H]1C(O)O[C@H](CO)[C@@H](O)[C@@H]1O[C@H](C)C(=O)N[C@@H](C)C(=O)N[C@H](CCC(=O)O)C(N)=O (mixture of isomers) [MDP, muramyl dipeptide]		fairly moderate	apparent increases in cell number	fairly moderate	fairly moderate decrease in basal secretion
TNF-α		weak	apparent increases in cell number	weak	
